Measured values reported in US10370381B2, “Inhibitors of bruton'S tyrosine kinase” (GILEAD SCIENCES, INC., priority 2017, dated 2019).
Where a name gives a salt, the structure may show the parent alone.

Experiment: Dynamic Vapor Sorption (DVS), hygroscopicity of solids
Format: physicochemical
Conditions: from about 10% to about 90% RH at about 25° C.
Procedure: Dynamic Vapor Sorption (DVS):
DVS data, which was used to determine the hygroscopicity of solids, were collected on a TA Instruments Q5000SA system. The temperature-controlled chamber was set at 25° C. and dry nitrogen was introduced at a flow rate of 10 mL/min. Approximately 1 to 5 mg sample was placed in a semispherical metal-coated quartz crucible or a disposable aluminum pan. A stepwise isotherm experiment at 25° C. was conducted by controlling the relative humidity (RH) in the chamber from 10% to 90%, then down to 10%, at 10% increments to accomplish a full sorption/desorption cycle.

| SMILES | dynamic vapor sorption isotherm water uptake |
| --- | --- |
| CC#CC(=O)N1CC[C@@H](n2c(=O)n(-c3ccc(Oc4ccccc4)cc3)c3c(N)ncnc32)C1 [Compound (I) fumarate, 6-amino-9-[(3R)-1-(2-butynoyl)-3-pyrrolidinyl]-7-(4-phenoxyphenyl)-7,9-dihydro-8H-purin-8-one] | about 0.1% |
| CC#CC(=O)N1CC[C@@H](n2c(=O)n(-c3ccc(Oc4ccccc4)cc3)c3c(N)ncnc32)C1 [Compound (I) oxalate, 6-amino-9-[(3R)-1-(2-butynoyl)-3-pyrrolidinyl]-7-(4-phenoxyphenyl)-7,9-dihydro-8H-purin-8-one] | about 0.5% |
| CC#CC(=O)N1CC[C@@H](n2c(=O)n(-c3ccc(Oc4ccccc4)cc3)c3c(N)ncnc32)C1 [Compound (I) succinate, 6-amino-9-[(3R)-1-(2-butynoyl)-3-pyrrolidinyl]-7-(4-phenoxyphenyl)-7,9-dihydro-8H-purin-8-one] | about 0.2% |
| CC#CC(=O)N1CC[C@@H](n2c(=O)n(-c3ccc(Oc4ccccc4)cc3)c3c(N)ncnc32)C1 [Compound (I) hemiedisylate, 6-amino-9-[(3R)-1-(2-butynoyl)-3-pyrrolidinyl]-7-(4-phenoxyphenyl)-7,9-dihydro-8H-purin-8-one] | about 3% |
| CC#CC(=O)N1CC[C@@H](n2c(=O)n(-c3ccc(Oc4ccccc4)cc3)c3c(N)ncnc32)C1 [Compound (I) edisylate, 6-amino-9-[(3R)-1-(2-butynoyl)-3-pyrrolidinyl]-7-(4-phenoxyphenyl)-7,9-dihydro-8H-purin-8-one] | about 22% |
| CC#CC(=O)N1CC[C@@H](n2c(=O)n(-c3ccc(Oc4ccccc4)cc3)c3c(N)ncnc32)C1 [Compound (I) hemisulfate, 6-amino-9-[(3R)-1-(2-butynoyl)-3-pyrrolidinyl]-7-(4-phenoxyphenyl)-7,9-dihydro-8H-purin-8-one] | about 1.2% |
| CC#CC(=O)N1CC[C@@H](n2c(=O)n(-c3ccc(Oc4ccccc4)cc3)c3c(N)ncnc32)C1 [Compound (I) heminapadisylate, 6-amino-9-[(3R)-1-(2-butynoyl)-3-pyrrolidinyl]-7-(4-phenoxyphenyl)-7,9-dihydro-8H-purin-8-one] | about 6.5% |
